Measurements as given in paper PMC7053212, “Auger radiopharmaceutical therapy targeting prostate-specific membrane antigen in a micrometastatic model of prostate cancer” (Theranostics, 2020).
“Also recorded” adds a separate entry of the source. Read-outs that look alike come from different tables or passages of the source.

Legend:
[1] = Long-term toxicity evaluation and necropsy, non-tumor-bearing mice; assay type: in vivo, CD1 mice
Experimental: Urinalysis evaluating specific gravity and urine protein levels via dipstick (Chemstrip Test Strips, Roche Diagnostics) was performed monthly for each animal. Terminal clinical and anatomic pathology was done in the Johns Hopkins Phenotyping and Comparative Pathology Core. Assessments included serum metabolic panel, blood counts, and complete necropsy with histopathology of more than 30 tissues as described previously.

[2] = Long-term biodistribution in normal tissues of non-tumor-bearing mice; assay type: in vivo, CD1 mice; details: 18.5 MBq iv, mean
Experimental: Comparison between tumor and kidney uptake was performed using Student's t-test.

[3] = system: PSMA-positive micrometastatic PC model; parameters: method as in PMID 27230930; details: 740 kBq; cited from earlier work
[4] = parameters: method as in PMID 27230930; details: cited from earlier work
metastatic PC = system: metastatic PC; parameters: method as in PMID 23863050; details: cited from earlier work
[5] = system: epidermal growth factor receptor-positive metastatic breast cancer; parameters: method as in PMID 24753984; details: activities up to 2.3 GBq; cited from earlier work
[6] = any activity up to 111 MBq, 12 months

Compound: O=C(O)CCC(NC(=O)NC(CCCCNC(=O)c1ccc([125I])cc1)C(=O)O)C(=O)O (stereo not shown) [^125I-DCIBzL]
- Average blood urea nitrogen ([1]; 111 MBq, necropsy at 12 months): 14.5 mg/dL
- Average creatinine ([1]; 111 MBq, necropsy at 12 months): 0.4 mg/dL
- Maximum tolerated dose (MTD) ([1]; CD1 mice, 12 months): at least 111 MBq
- Maximum tolerated dose (MTD) ([1]; activities up to 111 MBq iv, 12 months): not reached
- Death from toxicity [1, 6]: No mouse treated with any activity of ^125I-DCIBzL died from toxicity
- Long-term toxicity (weight, urinalysis, necropsy) [1, 6]: no appreciable toxicity; also recorded: no acute or long-term toxicity was noted; also recorded: no long-term toxicities were noted
- Renal histopathology ([1]; highest activities, 12 months): mild renal tubule epithelial hypertrophic changes with occasional atypia
- Average hemoglobin at necropsy ([1]; treated mice, 12 months): 12.8 g/dL
- Long-term hematologic toxicity (histopathology of spleen, bone marrow, lymph nodes) ([1]; treated mice, 12 months): not noted
- Late nephropathy on necropsy ([1]; up to 111 MBq, 12 months): no evidence of late nephropathy
- Changes in body weight or urine protein levels ([1]; up to 111 MBq, 12 months, vs untreated): no consistent changes
- % Injected Dose/gram Bladder ([2]; 2 weeks): 0.15 % Injected Dose/gram
- % Injected Dose/gram Blood ([2]; 2 weeks): 0.01 % Injected Dose/gram
- % Injected Dose/gram Heart ([2]; 2 weeks): 0.05 % Injected Dose/gram
- % Injected Dose/gram Large intestine ([2]; 2 weeks): 0.05 % Injected Dose/gram
- % Injected Dose/gram Liver ([2]; 2 weeks): 0.05 % Injected Dose/gram
- % Injected Dose/gram Lung ([2]; 2 weeks): 0.31 % Injected Dose/gram
- % Injected Dose/gram Muscle ([2]; 2 weeks): 0.05 % Injected Dose/gram
- % Injected Dose/gram Pancreas ([2]; 2 weeks): 0.07 % Injected Dose/gram
- % Injected Dose/gram Salivary gland ([2]; 2 weeks): 0.13 % Injected Dose/gram
- % Injected Dose/gram Small intestine ([2]; 2 weeks): 0.03 % Injected Dose/gram
- % Injected Dose/gram Spleen ([2]; 2 weeks): 0.77 % Injected Dose/gram
- % Injected Dose/gram Stomach ([2]; 2 weeks): 0.05 % Injected Dose/gram
- % Injected Dose/gram Bladder ([2]; 4 weeks): 0.06 % Injected Dose/gram
- % Injected Dose/gram Blood ([2]; 4 weeks): 0.00 % Injected Dose/gram
- % Injected Dose/gram Heart ([2]; 4 weeks): 0.02 % Injected Dose/gram
- % Injected Dose/gram Large intestine ([2]; 4 weeks): 0.02 % Injected Dose/gram
- % Injected Dose/gram Liver ([2]; 4 weeks): 0.02 % Injected Dose/gram
- % Injected Dose/gram Lung ([2]; 4 weeks): 0.12 % Injected Dose/gram
- % Injected Dose/gram Muscle ([2]; 4 weeks): 0.03 % Injected Dose/gram
- % Injected Dose/gram Pancreas ([2]; 4 weeks): 0.03 % Injected Dose/gram
- % Injected Dose/gram Salivary gland ([2]; 4 weeks): 0.05 % Injected Dose/gram
- % Injected Dose/gram Small intestine ([2]; 4 weeks): 0.02 % Injected Dose/gram
- % Injected Dose/gram Spleen ([2]; 4 weeks): 0.36 % Injected Dose/gram
- % Injected Dose/gram Stomach ([2]; 4 weeks): 0.02 % Injected Dose/gram
- % Injected Dose/gram Bladder ([2]; 6 weeks): 0.04 % Injected Dose/gram
- % Injected Dose/gram Blood ([2]; 6 weeks): 0.00 % Injected Dose/gram
- % Injected Dose/gram Heart ([2]; 6 weeks): 0.01 % Injected Dose/gram
- % Injected Dose/gram Large intestine ([2]; 6 weeks): 0.02 % Injected Dose/gram
- % Injected Dose/gram Liver ([2]; 6 weeks): 0.01 % Injected Dose/gram
- % Injected Dose/gram Lung ([2]; 6 weeks): 0.05 % Injected Dose/gram
- % Injected Dose/gram Muscle ([2]; 6 weeks): 0.02 % Injected Dose/gram
- % Injected Dose/gram Pancreas ([2]; 6 weeks): 0.02 % Injected Dose/gram
- % Injected Dose/gram Salivary gland ([2]; 6 weeks): 0.02 % Injected Dose/gram
- % Injected Dose/gram Small intestine ([2]; 6 weeks): 0.01 % Injected Dose/gram
- % Injected Dose/gram Spleen ([2]; 6 weeks): 0.10 % Injected Dose/gram
- % Injected Dose/gram Stomach ([2]; 6 weeks): 0.01 % Injected Dose/gram
- % Injected Dose/gram Bladder ([2]; 8 weeks): 0.01 % Injected Dose/gram
- % Injected Dose/gram Blood ([2]; 8 weeks): 0.00 % Injected Dose/gram
- % Injected Dose/gram Heart ([2]; 8 weeks): 0.00 % Injected Dose/gram
- % Injected Dose/gram Large intestine ([2]; 8 weeks): 0.01 % Injected Dose/gram
- % Injected Dose/gram Liver ([2]; 8 weeks): 0.00 % Injected Dose/gram
- % Injected Dose/gram Lung ([2]; 8 weeks): 0.03 % Injected Dose/gram
- % Injected Dose/gram Muscle ([2]; 8 weeks): 0.01 % Injected Dose/gram
- % Injected Dose/gram Pancreas ([2]; 8 weeks): 0.01 % Injected Dose/gram
- % Injected Dose/gram Salivary gland ([2]; 8 weeks): 0.01 % Injected Dose/gram
- % Injected Dose/gram Small intestine ([2]; 8 weeks): 0.01 % Injected Dose/gram
- % Injected Dose/gram Spleen ([2]; 8 weeks): 0.05 % Injected Dose/gram
- % Injected Dose/gram Stomach ([2]; 8 weeks): 0.00 % Injected Dose/gram
- % Injected Dose/gram Bladder ([2]; 10 weeks): 0.00 % Injected Dose/gram
- % Injected Dose/gram Blood ([2]; 10 weeks): 0.00 % Injected Dose/gram
- % Injected Dose/gram Heart ([2]; 10 weeks): 0.00 % Injected Dose/gram
- % Injected Dose/gram Large intestine ([2]; 10 weeks): 0.00 % Injected Dose/gram
- % Injected Dose/gram Liver ([2]; 10 weeks): 0.00 % Injected Dose/gram
- % Injected Dose/gram Lung ([2]; 10 weeks): 0.00 % Injected Dose/gram
- % Injected Dose/gram Muscle ([2]; 10 weeks): 0.00 % Injected Dose/gram
- % Injected Dose/gram Pancreas ([2]; 10 weeks): 0.00 % Injected Dose/gram
- % Injected Dose/gram Salivary gland ([2]; 10 weeks): 0.00 % Injected Dose/gram
- % Injected Dose/gram Small intestine ([2]; 10 weeks): 0.00 % Injected Dose/gram
- % Injected Dose/gram Spleen ([2]; 10 weeks): 0.01 % Injected Dose/gram
- % Injected Dose/gram Stomach ([2]; 10 weeks): 0.00 % Injected Dose/gram
- % Injected Dose/gram Bladder ([2]; 12 weeks): 0.00 % Injected Dose/gram
- % Injected Dose/gram Blood ([2]; 12 weeks): 0.00 % Injected Dose/gram
- % Injected Dose/gram Heart ([2]; 12 weeks): 0.00 % Injected Dose/gram
- % Injected Dose/gram Large intestine ([2]; 12 weeks): 0.00 % Injected Dose/gram
- % Injected Dose/gram Liver ([2]; 12 weeks): 0.00 % Injected Dose/gram
- % Injected Dose/gram Lung ([2]; 12 weeks): 0.01 % Injected Dose/gram
- % Injected Dose/gram Muscle ([2]; 12 weeks): 0.00 % Injected Dose/gram
- % Injected Dose/gram Pancreas ([2]; 12 weeks): 0.00 % Injected Dose/gram
- % Injected Dose/gram Salivary gland ([2]; 12 weeks): 0.00 % Injected Dose/gram
- % Injected Dose/gram Small intestine ([2]; 12 weeks): 0.00 % Injected Dose/gram
- % Injected Dose/gram Spleen ([2]; 12 weeks): 0.01 % Injected Dose/gram
- % Injected Dose/gram Stomach ([2]; 12 weeks): 0.00 % Injected Dose/gram

Compound: O=C(O)CC[C@H](NC(=O)NC(CCCCNC(=O)c1ccc([211At])cc1)C(=O)O)C(=O)O (stereo partly drawn) [^211At-PSMA-6, (2S)-2-(3-(1-carboxy-5-(4-^211At-astatobenzamido)pentyl)ureido)-pentanedioic acid]
- Increase in median survival [3]: ~2 fold
- Maximum tolerated dose (MTD) ([4]; CD1 mice): 37 kBq
- Dose-limiting toxicity [4]: dose-limiting late nephrotoxicity

Compound: [Cl][223Ra][Cl] [^223RaCl2]
- Prolongation of survival (metastatic PC): 3 months

Compound: ^111In-DTPA-hEGF: Auger RPT evaluated in a Phase I trial of epidermal growth factor receptor-positive metastatic breast cancer
- MTD [5]: not reached
